{"source": "ChEMBL document CHEMBL3861944", "about": "(Medchemcomm, 2016)", "key": {"THP-1 [1]": {"tested_on": "THP-1", "experiment": "Pro-apoptotic activity in human THP1 cells assessed as late apoptotic cells at 3 uM after 24 hrs by annexin V/propidium iodide staining-based flow cytometric method (reference value: 0.4 +/- 0.1%)", "type": "functional"}, "THP-1 [2]": {"tested_on": "THP-1", "experiment": "Pro-apoptotic activity in human THP1 cells assessed as late apoptotic cells at 0.75 uM after 24 hrs by annexin V/propidium iodide staining-based flow cytometric method (reference value: 0.4 +/- 0.1%)", "type": "functional"}, "[3]": {"experiment": "Cell cycle arrest in human AsPC1 cells assessed as accumulation at G2/M phase at 50 uM after 24 hrs by flow cytometric method (reference value: 29 +/- 5%)", "type": "functional, cell-based"}, "[4]": {"experiment": "Cell cycle arrest in human THP1 cells assessed as accumulation at G2/M phase at 0.75 uM after 24 hrs by flow cytometric method (reference value: 32 +/- 1%)", "type": "functional, cell-based", "details": "THP-1"}, "[5]": {"experiment": "Cell cycle arrest in human THP1 cells assessed as decrease in cell levels at G2/M phase after 24 hrs by flow cytometric method", "type": "functional, cell-based", "details": "THP-1"}, "[6]": {"experiment": "Cell cycle arrest in human THP1 cells assessed as accumulation at G0/G1 phase at 10 uM after 24 hrs by flow cytometric method (reference value: 51 +/- 6%)", "type": "functional, cell-based", "details": "THP-1"}, "[7]": {"experiment": "Cell cycle arrest in human AsPC1 cells assessed as accumulation at G0/G1 phase at 50 uM after 24 hrs by flow cytometric method (reference value: 48 +/- 7%)", "type": "functional, cell-based"}, "THP-1 [8]": {"tested_on": "THP-1", "experiment": "Pro-apoptotic activity in human THP1 cells assessed as necrotic cells at 0.5 uM after 24 hrs by annexin V/propidium iodide staining-based flow cytometric method relative to control", "type": "functional"}, "THP-1 [9]": {"tested_on": "THP-1", "experiment": "Pro-apoptotic activity in human THP1 cells assessed as early apoptotic cells at 1 uM after 24 hrs by annexin V/propidium iodide staining-based flow cytometric method (reference value: 0.4 +/- 0.1%)", "type": "functional"}}, "data": [{"smiles": "NC(=[Se])N/N=C/c1cccc2cccnc12", "values": [{"measurement": "Activity", "setting": "THP-1 [1]", "value": 3, "unit": "%"}, {"measurement": "Activity", "setting": "THP-1 [2]", "value": 2.4, "unit": "%"}, {"measurement": "Activity", "setting": "[3]", "value": 8.6, "unit": "%"}, {"measurement": "Activity", "setting": "[4]", "value": 34, "unit": "%"}, {"measurement": "Activity", "setting": "[5]", "value": "Dose-dependent effect"}, {"measurement": "Activity", "setting": "[6]", "value": 45, "unit": "%"}, {"measurement": "Activity", "setting": "[7]", "value": 65.4, "unit": "%"}, {"measurement": "Activity", "setting": "THP-1 [8]", "value": 0.7, "unit": "%"}, {"measurement": "Activity", "setting": "THP-1 [9]", "value": 1.5, "unit": "%"}]}]}
